Test results reported in patent US20250171495A1, “MUTLI-TARGETED SERINE PROTEASE INHIBITORS FOR TREATMENT OF CANCER AND VIRAL INFECTION” (Washington University, priority 2023, published 2025).

Legend:
Format in all cases: biochemical
matriptase = biological target: T1, matriptase (Homo sapiens, UniProt Q9Y5Y6); assay: HyCoSuL P4-P2 substrate specificity screening, matriptase; settings: for P2 Position Substrate Activity for matriptase (percent substrate cleavage/proteolysis): residue fixed at P2 position, P1-Arg HyCoSuL, 100 μM, best recognized amino acid set to 100%; for P3 Position Various Amino Acids Substrate Activity, matriptase (percent substrate cleavage/proteolysis): residue fixed at P3 position of substrate library; for P4 Position Various Amino Acids Substrate Activity, matriptase (percent substrate proteolysis/cleavage): residue fixed at P4 position of substrate library
T1 sequence (Q9Y5Y6 1-855): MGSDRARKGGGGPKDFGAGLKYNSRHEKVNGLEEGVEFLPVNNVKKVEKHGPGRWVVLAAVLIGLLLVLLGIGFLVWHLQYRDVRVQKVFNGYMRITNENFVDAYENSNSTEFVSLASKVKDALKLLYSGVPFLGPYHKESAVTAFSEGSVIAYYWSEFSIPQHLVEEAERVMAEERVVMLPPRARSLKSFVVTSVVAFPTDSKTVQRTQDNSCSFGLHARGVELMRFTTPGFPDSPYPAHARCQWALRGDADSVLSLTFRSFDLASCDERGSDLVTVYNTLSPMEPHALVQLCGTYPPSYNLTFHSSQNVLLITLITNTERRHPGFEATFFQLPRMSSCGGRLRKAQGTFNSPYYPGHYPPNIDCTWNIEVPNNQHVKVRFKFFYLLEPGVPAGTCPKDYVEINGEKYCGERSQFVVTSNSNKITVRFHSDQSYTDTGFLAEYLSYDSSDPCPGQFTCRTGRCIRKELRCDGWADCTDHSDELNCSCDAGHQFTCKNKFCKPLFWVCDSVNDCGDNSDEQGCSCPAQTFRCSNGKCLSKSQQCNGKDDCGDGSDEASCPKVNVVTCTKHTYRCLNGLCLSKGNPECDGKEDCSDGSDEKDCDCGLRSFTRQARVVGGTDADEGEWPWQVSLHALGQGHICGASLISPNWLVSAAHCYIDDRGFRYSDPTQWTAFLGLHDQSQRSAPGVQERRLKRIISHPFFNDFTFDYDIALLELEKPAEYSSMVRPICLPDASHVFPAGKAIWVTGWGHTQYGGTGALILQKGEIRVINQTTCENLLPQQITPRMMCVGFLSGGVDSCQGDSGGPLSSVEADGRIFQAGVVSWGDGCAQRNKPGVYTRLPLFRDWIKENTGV

TMPRSS2 = TMPRSS2 (Homo sapiens, UniProt O15393); assay: PS-SCL / HyCoSuL substrate specificity screening, TMPRSS2; settings: for P2 Position Substrate Activity for TMPRSS2 (percent substrate cleavage/proteolysis): residue fixed at P2 position of substrate library, best recognized amino acid set to 100%; for P3 Position Various Amino Acids Substrate Activity, TMPRSS2 (percent substrate cleavage/proteolysis): residue fixed at P3 position of substrate library; for P4 Position Various Amino Acids Substrate Activity, TMPRSS2 (percent substrate proteolysis/cleavage): residue fixed at P4 position of substrate library
Sequence of TMPRSS2 (O15393 whole entry): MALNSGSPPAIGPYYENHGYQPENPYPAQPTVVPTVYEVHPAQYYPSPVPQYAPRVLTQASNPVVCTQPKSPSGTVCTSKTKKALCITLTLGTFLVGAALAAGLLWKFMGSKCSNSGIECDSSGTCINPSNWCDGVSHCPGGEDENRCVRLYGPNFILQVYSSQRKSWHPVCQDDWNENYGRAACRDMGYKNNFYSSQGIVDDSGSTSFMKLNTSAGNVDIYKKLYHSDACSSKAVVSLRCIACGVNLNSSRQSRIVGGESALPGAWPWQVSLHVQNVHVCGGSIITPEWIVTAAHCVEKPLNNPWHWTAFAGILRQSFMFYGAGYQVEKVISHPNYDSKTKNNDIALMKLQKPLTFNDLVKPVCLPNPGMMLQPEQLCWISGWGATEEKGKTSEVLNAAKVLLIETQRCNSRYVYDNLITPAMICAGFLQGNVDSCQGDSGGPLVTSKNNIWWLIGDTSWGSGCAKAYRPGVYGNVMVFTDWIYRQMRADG

hepsin = biological target: T2, hepsin (Homo sapiens, UniProt P05981); assay: HyCoSuL P4-P2 substrate specificity screening, hepsin; settings: for P2 Position Substrate Activity for hepsin (percent substrate cleavage/proteolysis): residue fixed at P2 position, P1-Arg HyCoSuL, 100 μM, best recognized amino acid set to 100%; for P3 Position Various Amino Acids Substrate Activity, hepsin (percent substrate cleavage/proteolysis): residue fixed at P3 position of substrate library; for P4 Position Various Amino Acids Substrate Activity, hepsin (percent substrate proteolysis/cleavage): residue fixed at P4 position of substrate library
T2 construct: purchased R&D Systems 4776-SE-010
T2 sequence (P05981 163-417 limits assumed): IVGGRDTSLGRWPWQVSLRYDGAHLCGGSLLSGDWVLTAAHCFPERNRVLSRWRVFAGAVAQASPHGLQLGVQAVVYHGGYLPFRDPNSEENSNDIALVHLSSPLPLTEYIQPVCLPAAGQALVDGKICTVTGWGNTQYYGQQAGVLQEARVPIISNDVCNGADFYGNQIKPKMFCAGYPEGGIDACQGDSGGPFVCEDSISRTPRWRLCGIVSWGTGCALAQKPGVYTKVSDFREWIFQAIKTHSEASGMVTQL
T2 sequence (P05981 1-162 partner limits assumed): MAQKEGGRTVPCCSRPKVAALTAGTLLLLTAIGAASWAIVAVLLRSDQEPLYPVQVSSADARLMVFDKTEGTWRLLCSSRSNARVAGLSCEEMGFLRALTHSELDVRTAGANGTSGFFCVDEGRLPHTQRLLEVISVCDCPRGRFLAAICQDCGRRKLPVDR

HGFA = biological target: T3, HGFA (Homo sapiens, UniProt Q04756); assay: HyCoSuL P4-P2 substrate specificity screening, HGFA; settings: for P2 Position Substrate Activity for HGFA (percent substrate cleavage/proteolysis): residue fixed at P2 position, P1-Arg HyCoSuL, 100 μM, best recognized amino acid set to 100%; for P3 Position Various Amino Acids Substrate Activity, HGFA (percent substrate cleavage/proteolysis): residue fixed at P3 position of substrate library; for P4 Position Various Amino Acids Substrate Activity, HGFA (percent substrate proteolysis/cleavage): residue fixed at P4 position of substrate library
T3 sequence (Q04756 373-655): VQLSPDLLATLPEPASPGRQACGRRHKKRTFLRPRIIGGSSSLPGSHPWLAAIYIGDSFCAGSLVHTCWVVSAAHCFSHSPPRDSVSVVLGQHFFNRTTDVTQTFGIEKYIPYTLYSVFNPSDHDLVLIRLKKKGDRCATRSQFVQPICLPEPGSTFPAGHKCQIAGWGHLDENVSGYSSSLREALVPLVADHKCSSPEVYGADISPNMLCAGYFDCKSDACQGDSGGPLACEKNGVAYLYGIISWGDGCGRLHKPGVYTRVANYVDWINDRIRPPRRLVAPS

Substance	P2 Position Substrate Activity for matriptase (percent substrate cleavage/proteolysis) (matriptase)	P3 Position Various Amino Acids Substrate Activity, matriptase (percent substrate cleavage/proteolysis) (matriptase)	P4 Position Various Amino Acids Substrate Activity, matriptase (percent substrate proteolysis/cleavage) (matriptase)	P2 Position Substrate Activity for TMPRSS2 (percent substrate cleavage/proteolysis) (TMPRSS2)	P3 Position Various Amino Acids Substrate Activity, TMPRSS2 (percent substrate cleavage/proteolysis) (TMPRSS2)	P4 Position Various Amino Acids Substrate Activity, TMPRSS2 (percent substrate proteolysis/cleavage) (TMPRSS2)	P2 Position Substrate Activity for hepsin (percent substrate cleavage/proteolysis) (hepsin)	P3 Position Various Amino Acids Substrate Activity, hepsin (percent substrate cleavage/proteolysis) (hepsin)	P4 Position Various Amino Acids Substrate Activity, hepsin (percent substrate proteolysis/cleavage) (hepsin)	P2 Position Substrate Activity for HGFA (percent substrate cleavage/proteolysis) (HGFA)	P3 Position Various Amino Acids Substrate Activity, HGFA (percent substrate cleavage/proteolysis) (HGFA)	P4 Position Various Amino Acids Substrate Activity, HGFA (percent substrate proteolysis/cleavage) (HGFA)
L-Phe	39%	19%	14%	95.60%	14.74%	31.64%	25.22%	2.91%	30.80%	16.60%	13.51%	9.42%
L-Pro	22%	2%	40%	16.87%	0.00%	40.11%	13.10%	2.09%	56.00%	2.21%	2.04%	10.30%
L-Ser	28%	33%	19%	19.86%	35.95%	20.12%	18.40%	38.70%	31.63%	3.24%	14.57%	7.04%
L-Thr	15%	31%	14%	22.02%	39.80%	21.84%	70.75%	35.34%	29.29%	8.87%	14.51%	7.67%
L-Trp	32%	11%	9%	33.05%	22.96%	24.62%	6.00%	0.00%	6.82%	4.04%	17.50%	8.78%
